Assays:
Alpha-galactosidase A = biological target: T1, Alpha-galactosidase A (Rattus norvegicus, UniProt D3ZJF9); test: Inhibitory activity against alpha-galactosidase from rat epididymis.
T1 sequence (D3ZJF9 whole entry): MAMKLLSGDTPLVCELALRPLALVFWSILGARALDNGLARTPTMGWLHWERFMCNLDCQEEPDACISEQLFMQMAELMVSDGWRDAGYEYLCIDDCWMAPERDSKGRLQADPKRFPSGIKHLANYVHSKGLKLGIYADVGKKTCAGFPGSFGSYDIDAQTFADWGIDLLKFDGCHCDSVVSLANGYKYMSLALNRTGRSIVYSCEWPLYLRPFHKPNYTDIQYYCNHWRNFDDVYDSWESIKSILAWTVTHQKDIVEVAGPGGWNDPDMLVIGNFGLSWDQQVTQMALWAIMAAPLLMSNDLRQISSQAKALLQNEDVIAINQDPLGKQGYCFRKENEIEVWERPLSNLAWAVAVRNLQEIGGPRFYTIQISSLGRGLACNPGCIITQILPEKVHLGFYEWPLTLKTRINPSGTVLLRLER

Beta-galactosidase = biological target: T2, Beta-galactosidase (Bos taurus, UniProt Q58D55); test: Inhibitory activity against beta-galactosidase from bovine liver
T2 sequence (Q58D55 whole entry): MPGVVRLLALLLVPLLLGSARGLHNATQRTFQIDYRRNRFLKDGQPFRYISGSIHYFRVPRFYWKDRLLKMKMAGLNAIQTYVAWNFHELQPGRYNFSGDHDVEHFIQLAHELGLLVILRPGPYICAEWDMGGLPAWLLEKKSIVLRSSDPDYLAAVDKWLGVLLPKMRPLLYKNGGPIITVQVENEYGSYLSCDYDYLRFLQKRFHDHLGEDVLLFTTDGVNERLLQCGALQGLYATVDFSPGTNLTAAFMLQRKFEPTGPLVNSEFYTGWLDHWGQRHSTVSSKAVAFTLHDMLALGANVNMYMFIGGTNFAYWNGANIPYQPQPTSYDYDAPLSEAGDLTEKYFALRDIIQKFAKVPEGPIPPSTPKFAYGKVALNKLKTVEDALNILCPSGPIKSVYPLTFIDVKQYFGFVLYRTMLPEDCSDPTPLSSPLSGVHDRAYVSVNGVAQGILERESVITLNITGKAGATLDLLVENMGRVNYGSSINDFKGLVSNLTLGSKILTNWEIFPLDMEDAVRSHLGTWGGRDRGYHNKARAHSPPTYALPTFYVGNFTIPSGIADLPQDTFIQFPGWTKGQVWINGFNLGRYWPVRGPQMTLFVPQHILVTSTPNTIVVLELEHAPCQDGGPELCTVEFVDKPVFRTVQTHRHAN

SMILES	IC50 (Alpha-galactosidase A) [µM]	IC50 (Beta-galactosidase) [µM]
OC[C@H]1N[C@H](CO)[C@@H](O)[C@@H](O)C1O (single isomer, unassigned)	67	160
OCC1NC(CO)[C@H](O)[C@@H](O)[C@@H]1O (stereo partly drawn)	4.5	–

Reference: ChEMBL document CHEMBL1131876, “Revised structure of a homonojirimycin isomer from Aglaonema treubii: first example of a naturally occurring alpha-homoallonojirimycin” (Bioorg Med Chem Lett, 1999)
